Laboratory results from patent US20120301895A1, “METHODS OF MODULATING BINDING OF SON OF SEVENLESS TO PHOSPHATIDIC ACID AND IDENTIFYING COMPOUNDS THAT MODULATE SUCH BINDING” (THE RESEARCH FOUNDATION OF STATE UNIVERSITY OF NEW YORK, priority 2007, published 2012).

Columns and labels:
[1] = target: T1, PLD1 (Homo sapiens, UniProt Q13393); assay: In vitro PLD activity, exogenous substrate assay, PLD1; assay type: biochemical; conditions: purified recombinant PLD1 with ARF-1, 30 min at 37° C.
T1 construct: made in house
T1 sequence (Q13393 1-1074): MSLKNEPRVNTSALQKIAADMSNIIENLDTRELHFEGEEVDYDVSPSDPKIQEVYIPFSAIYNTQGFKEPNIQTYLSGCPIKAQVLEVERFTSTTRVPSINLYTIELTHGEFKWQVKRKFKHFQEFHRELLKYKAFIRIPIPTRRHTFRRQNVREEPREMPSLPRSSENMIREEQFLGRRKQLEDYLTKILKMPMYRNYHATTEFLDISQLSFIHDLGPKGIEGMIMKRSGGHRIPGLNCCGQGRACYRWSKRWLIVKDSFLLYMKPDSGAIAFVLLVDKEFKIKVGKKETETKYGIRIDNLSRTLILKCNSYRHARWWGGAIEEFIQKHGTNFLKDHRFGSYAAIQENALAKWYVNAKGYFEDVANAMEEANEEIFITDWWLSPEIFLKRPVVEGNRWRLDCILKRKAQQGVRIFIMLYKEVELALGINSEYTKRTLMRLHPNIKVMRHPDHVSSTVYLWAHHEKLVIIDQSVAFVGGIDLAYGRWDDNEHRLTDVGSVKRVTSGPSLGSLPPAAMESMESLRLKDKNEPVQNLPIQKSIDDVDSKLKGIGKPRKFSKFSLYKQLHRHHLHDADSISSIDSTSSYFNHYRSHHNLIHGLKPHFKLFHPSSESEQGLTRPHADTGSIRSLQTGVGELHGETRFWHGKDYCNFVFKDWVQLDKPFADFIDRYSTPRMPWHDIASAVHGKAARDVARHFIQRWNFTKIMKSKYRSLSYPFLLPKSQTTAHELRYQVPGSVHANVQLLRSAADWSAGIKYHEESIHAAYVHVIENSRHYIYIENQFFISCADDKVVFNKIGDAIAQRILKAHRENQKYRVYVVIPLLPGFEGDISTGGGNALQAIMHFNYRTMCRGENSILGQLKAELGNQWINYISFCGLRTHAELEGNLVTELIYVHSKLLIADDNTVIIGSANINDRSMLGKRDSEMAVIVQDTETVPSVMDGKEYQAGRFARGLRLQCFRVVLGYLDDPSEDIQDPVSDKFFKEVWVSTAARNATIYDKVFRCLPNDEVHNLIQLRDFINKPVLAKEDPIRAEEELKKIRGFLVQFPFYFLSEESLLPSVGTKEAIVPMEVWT
Procedure: In FIG. 13A, MDA-MB-231 cells were plated as in FIGS. 12A-C and then shifted to either 10% serum or 0.5% serum overnight as indicated. Honokiol (20 μM) or control ethanol was then added for 4 hr as indicated, at which time the cells were harvested and the levels of PBt were determined as in FIGS. 12A-C. The experiment shown is representative of at least three independent experiments. In FIG. 13B, the effect of honokiol on the activity of PLD isoforms was measured using exogenous substrate assay as described previously (Henage et al., “Kinetic Analysis of a Mammalian Phospholipase D: Allosteric Modulation by Monomeric GTPases, Protein Kinase C, and Polyphosphoinositides,” J. Biol. Chem. 281:3408-17 (2006), which is hereby incorporated by reference in its entirety). […] The amount of background was determined and subtracted using a bovine serum albumin standard. […]
For in vivo PLD activity, cells were plated in 60 mm culture dishes in DMEM with 10% serum at a density that would allow them to grow to about 80% confluence after 2 days, then cells were shifted to DMEM containing 0.5% or 10% serum as indicated in the figure legends overnight. […] Briefly, PLD activity was measured by the release of [methyl-^3H] choline from [choline-methyl-^3H]dipalmitoyl-phosphatidylcholine. […]

[2] = system: MDA-MB-231 human breast cancer cells; conditions: Wolf et al. 2007; cited from earlier work

In the case of `C=CCc1ccc(O)c(-c2ccc(O)c(CC=C)c2)c1` [honokiol, Honokiol], the “in vitro activity of PLD1” value [1] is listed as “no significant effect” and the “growth of MDA-MB-231 cells in mouse xenograft” value [2] is listed as “suppress the growth”.
